We go through 20 compounds from patent publication US12187723B2 (BRISTOL-MYERS SQUIBB COMPANY, priority 2019, dated 2025).

pIC50: −log10 of the molar value.

For this experiment, the target named is T1, human TLR7 (Homo sapiens, UniProt Q9NYK1).
T1 construct: host or cells: HEK-Blue cells
T1 sequence (Q9NYK1 27-1049): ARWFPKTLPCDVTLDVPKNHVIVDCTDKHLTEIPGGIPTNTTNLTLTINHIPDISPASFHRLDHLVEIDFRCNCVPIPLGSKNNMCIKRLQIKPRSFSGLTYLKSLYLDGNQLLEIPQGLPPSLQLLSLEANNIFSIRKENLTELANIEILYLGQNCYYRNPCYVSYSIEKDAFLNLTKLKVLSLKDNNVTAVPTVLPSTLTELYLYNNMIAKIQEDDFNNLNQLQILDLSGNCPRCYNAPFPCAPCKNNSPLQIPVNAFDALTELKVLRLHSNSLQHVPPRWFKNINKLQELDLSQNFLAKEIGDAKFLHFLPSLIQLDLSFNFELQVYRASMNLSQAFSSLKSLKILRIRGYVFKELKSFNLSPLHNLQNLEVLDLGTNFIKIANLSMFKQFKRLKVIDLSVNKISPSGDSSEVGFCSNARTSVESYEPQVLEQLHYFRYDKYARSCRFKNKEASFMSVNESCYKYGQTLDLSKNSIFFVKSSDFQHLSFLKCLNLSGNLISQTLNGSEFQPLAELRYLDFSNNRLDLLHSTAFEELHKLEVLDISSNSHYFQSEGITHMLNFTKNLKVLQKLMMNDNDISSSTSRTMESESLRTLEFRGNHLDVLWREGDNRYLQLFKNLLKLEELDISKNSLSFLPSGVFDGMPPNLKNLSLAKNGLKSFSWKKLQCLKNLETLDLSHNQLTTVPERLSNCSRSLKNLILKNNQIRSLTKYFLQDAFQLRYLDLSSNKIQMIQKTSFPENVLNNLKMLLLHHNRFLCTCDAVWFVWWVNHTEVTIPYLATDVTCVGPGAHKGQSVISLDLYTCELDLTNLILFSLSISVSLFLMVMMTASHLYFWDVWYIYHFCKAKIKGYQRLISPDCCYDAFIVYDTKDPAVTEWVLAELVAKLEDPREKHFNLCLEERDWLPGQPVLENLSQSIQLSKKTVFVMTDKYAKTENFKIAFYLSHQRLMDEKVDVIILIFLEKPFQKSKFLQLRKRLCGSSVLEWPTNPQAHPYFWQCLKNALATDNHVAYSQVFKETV
The experiment can be described thus: TLR7 inhibition reporter assay (HEK-Blue SEAP). The class given is cell-based. Particulars: HEK-Blue cells overexpressing human TLR7, gardiquimod 7.5 μM, 22 hour incubation. The gist of the method:
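SEAP readout via HEK-Blue Detection medium after 22 h at 37 °C, 5% CO2 defines inhibition, normalized between agonist-plus-DMSO wells and a reference inhibitor. Compound dose range 0.05 nM–50 μM; TLR7 cells at 15,000/well (gardiquimod), TLR8 at 20,000/well (R848).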
In general terms: In a reporter assay the amount or activity of a reporter protein is the signal.
In the case of `COc1cc(-c2cc3[nH]c(=O)n([C@@H]4CCCN(C5COC5)C4)c3cc2C)cn2ncnc12` [Example 72, (R)-5-(8-methoxy-[1,2,4]triazolo[1,5-a]pyridin-6-yl)-6-methyl-1-(1-(oxetan-3-yl)piperidin-3-yl)-1,3-dihydro-2H-benzo[d]imidazol-2-one], the pIC50 is 6.17.

`Cc1cc2c(cc1-c1cc(C)c3ncnn3c1)[nH]c(=O)n2C1CCN(CC(=O)N(C)C)CC1` [Example 91, N,N-dimethyl-2-(4-(6-methyl-5-(8-methyl-[1,2,4]triazolo[1,5-a]pyridin-6-yl)-2-oxo-2,3-dihydro-1H-benzo[d]imidazol-1-yl)piperidin-1-yl)acetamide] showed a pIC50 below 5.51. Take `COc1cc(-c2cc3[nH]c(=O)n([C@H]4CC[C@@H](NC5CCC5)CC4)c3cc2C)cn2ncnc12` [Example 58, 1-((1s,4s)-4-(cyclobutylamino)cyclohexyl)-5-(8-methoxy-[1,2,4]triazolo[1,5-a]pyridin-6-yl)-6-methyl-1,3-dihydro-2H-benzo[d]imidazol-2-one]: the negative logarithm of the IC50 (pIC50) was 7.79. `COc1cc(-c2cc3[nH]c(=O)n(C4CCN(CC(=O)N(C)C)CC4)c3cc2C)cn2ncnc12` [Example 86, 2-(4-(5-(8-methoxy-[1,2,4]triazolo[1,5-a]pyridin-6-yl)-6-methyl-2-oxo-2,3-dihydro-1H-benzo[d]imidazol-1-yl)piperidin-1-yl)-N,N-dimethylacetamide] showed a negative logarithm of the IC50 (pIC50) of 6.85. For `Cc1cc2c(cc1-c1cc(C)c3ncnn3c1)[nH]c(=O)n2C1CCN(C(C)C)CC1` [Example 2, 1-(1-isopropylpiperidin-4-yl)-6-methyl-5-(8-methyl-[1,2,4]triazolo[1,5-a]pyridin-6-yl)-1,3-dihydro-2H-benzo[d]imidazol-2-one], the pIC50 is 7.16. Regarding `CCCN1CCC(n2c(=O)[nH]c3cc(-c4cc(OC)c5ncnn5c4)ccc32)CC1` [Example 76, 5-(8-methoxy-[1,2,4]triazolo[1,5-a]pyridin-6-yl)-1-(1-propylpiperidin-4-yl)-1,3-dihydro-2H-benzo[d]imidazol-2-one], the negative-log IC50 (pIC50) is 5.83.

On to `CNC(=O)CN1CCC(n2c(=O)[nH]c3cc(-c4cc(C)c5ncnn5c4)c(C)cc32)CC1` [Example 88, N-methyl-2-(4-(6-methyl-5-(8-methyl-[1,2,4]triazolo[1,5-a]pyridin-6-yl)-2-oxo-2,3-dihydro-1H-benzo[d]imidazol-1-yl)piperidin-1-yl)acetamide], for which the negative-log IC50 (pIC50) is 6.48.

In turn, `Cc1cc2c(cc1-c1cc(C)c3ncnn3c1)[nH]c(=O)n2C1CCN(CC(=O)N(C)C)CC1` [Example 89, N,N-dimethyl-2-(4-(6-methyl-5-(8-methyl-[1,2,4]triazolo[1,5-a]pyridin-6-yl)-2-oxo-2,3-dihydro-1H-benzo[d]imidazol-1-yl)piperidin-1-yl)acetamide] showed a negative-log IC50 (pIC50) of 6.95. This pIC50 is 0.47 log units higher than that of the compound before.

Turning to `COc1cc(-c2cc3[nH]c(=O)n([C@@H]4CCCN(C5CCOCC5)C4)c3cc2C)cn2ncnc12` [Example 70, (R)-5-(8-methoxy-[1,2,4]triazolo[1,5-a]pyridin-6-yl)-6-methyl-1-(1-(tetrahydro-2H-pyran-4-yl)piperidin-3-yl)-1,3-dihydro-2H-benzo[d]imidazol-2-one], the negative logarithm of the IC50 (pIC50) was 6.79. The result for `CCN[C@H]1CC[C@@H](n2c(=O)[nH]c3cc(-c4cc(OC)c5ncnn5c4)c(C)cc32)CC1` [Example 63, 1-((1s,4s)-4-(ethylamino)cyclohexyl)-5-(8-methoxy-[1,2,4]triazolo[1,5-a]pyridin-6-yl)-6-methyl-1,3-dihydro-2H-benzo[d]imidazol-2-one] reads 7.35; that for `COc1cc(-c2ccc3c(c2)[nH]c(=O)n3C2CCN(C)CC2)cn2ncnc12` [Example 74, 5-(8-methoxy-[1,2,4]triazolo[1,5-a]pyridin-6-yl)-1-(1-methylpiperidin-4-yl)-1,3-dihydro-2H-benzo[d]imidazol-2-one], 6.02; that for `CCCN1CCC[C@@H](n2c(=O)[nH]c3cc(-c4cc(C)c5ncnn5c4)c(C)cc32)C1` [Example 42, (R)-6-methyl-5-(8-methyl-[1,2,4]triazolo[1,5-a]pyridin-6-yl)-1-(1-propylpiperidin-3-yl)-1,3-dihydro-2H-benzo[d]imidazol-2-one], 7.58. `COc1cc(-c2cc3[nH]c(=O)n([C@@H]4CCCN(CC(C)C)C4)c3cc2C)cn2ncnc12` [Example 56, (R)-1-(1-isobutylpiperidin-3-yl)-5-(8-methoxy-[1,2,4]triazolo[1,5-a]pyridin-6-yl)-6-methyl-1,3-dihydro-2H-benzo[d]imidazol-2-one] showed a pIC50 of 8.27. `COc1cc(-c2cc3[nH]c(=O)n([C@H]4CC[C@@H](NC5CCCC5)CC4)c3cc2C)cn2ncnc12` [Example 65, 1-((1s,4s)-4-(cyclopentylamino)cyclohexyl)-5-(8-methoxy-[1,2,4]triazolo[1,5-a]pyridin-6-yl)-6-methyl-1,3-dihydro-2H-benzo[d]imidazol-2-one] showed a negative-log IC50 (pIC50) of 7.98. `CCC(CC)CN1CCC(n2c(=O)[nH]c3cc(-c4cc(OC)c5ncnn5c4)ccc32)CC1` [Example 75, 1-(1-(2-ethylbutyl)piperidin-4-yl)-5-(8-methoxy-[1,2,4]triazolo[1,5-a]pyridin-6-yl)-1,3-dihydro-2H-benzo[d]imidazol-2-one] gave a negative logarithm of the IC50 (pIC50) of 5.87.

Compound `CCC(CC)CN1CCC[C@@H](n2c(=O)[nH]c3cc(-c4cc(C)c5ncnn5c4)c(C)cc32)C1` [Example 45, (R)-1-(1-(2-ethylbutyl)piperidin-3-yl)-6-methyl-5-(8-methyl-[1,2,4]triazolo[1,5-a]pyridin-6-yl)-1,3-dihydro-2H-benzo[d]imidazol-2-one] had a pIC50 of 7.53. Turning to `COc1cc(-c2cc3[nH]c(=O)n([C@H]4CC[C@@H](NC5COC5)CC4)c3cc2C)cn2ncnc12` [Example 59, 5-(8-methoxy-[1,2,4]triazolo[1,5-a]pyridin-6-yl)-6-methyl-1-((1s,4s)-4-(oxetan-3-ylamino)cyclohexyl)-1,3-dihydro-2H-benzo[d]imidazol-2-one], the pIC50 is 7.17. For `COc1cc(-c2ccc3c(c2)[nH]c(=O)n3C2CCN(CC3CC3)CC2)cn2ncnc12` [Example 79, 1-(1-(cyclopropylmethyl)piperidin-4-yl)-5-(8-methoxy-[1,2,4]triazolo[1,5-a]pyridin-6-yl)-1,3-dihydro-2H-benzo[d]imidazol-2-one], the pIC50 is below 5.51. `CCC(C)N[C@H]1CC[C@@H](n2c(=O)[nH]c3cc(-c4cc(C)c5ncnn5c4)c(C)cc32)CC1` (some centres unmarked) [Example 34, 1-((1s,4s)-4-(sec-butylamino)cyclohexyl)-6-methyl-5-(8-methyl-[1,2,4]triazolo[1,5-a]pyridin-6-yl)-1,3-dihydro-2H-benzo[d]imidazol-2-one] gave a pIC50 of 7.69. In turn, `Cc1cc2c(cc1-c1cc(C)c3ncnn3c1)[nH]c(=O)n2[C@H]1CCCN(CC(=O)N(C)C)C1` [Example 93, (S)—N,N-dimethyl-2-(3-(6-methyl-5-(8-methyl-[1,2,4]triazolo[1,5-a]pyridin-6-yl)-2-oxo-2,3-dihydro-1H-benzo[d]imidazol-1-yl)piperidin-1-yl)acetamide] gave a pIC50 of 6.25.

As a reminder, the pIC50 is the IC50 on a negative log10 scale, so that one unit is a factor of ten.
